In PubChem BioAssay AID2060511 (Molecular Pharmacology Branch, DTP, NCI, 2025):
pIC50: −log10 of the molar value.

System: 422866-222-R5-J1-PDC spheroids with HUVEC/MSC, viability
Test: Anticancer human tumor 422866-222-R5-J1-PDC patient-derived pancreatic adenocarcinoma cell line growth inhibition [GQUAD]
Conditions: for pIC50: curve of first compound; for viability, T/C: stronger effect = lower value
Text: DNA G-quadruplex Stabilizer Agents in Combinations in Complex Spheroids
A high-throughput screen of multi-cell type tumor spheroids was designed to identify active combinations of DNA G-quadruplex stabilizer agents and targeted small molecules. Complex spheroids include a stromal component modeled by human endothelial cells (HUVEC) and fibroblasts modeled by human mesenchymal stem cells (MSCs). The concentration ranges selected for each drug and investigational agent were based upon clinically achievable concentrations if the clinical Cmax of the agent was known.
Compounds. The drugs and investigational agents: pidnarulex (CX-5461; NSC782164), APTO-253 (NSC789042), BRACO-19 (NSC847499), peposertib (NSC802822), ceralasertib (NSC780249), elimusertib (NSC800525), camonsertib (NSC841442), AZD-1390 (NSC803789), olaparib (NSC753686), talazoparib (NSC767125), ART-558 (NSC835418), sotorasib (NSC818433), MRTX-1133 (NSC836407), SN-38 (NSC673596), topotecan (NSC609699), etoposide (NSC141540), doxorubicin (NSC123127), gemcitabine (NSC613327), 5-fluorouracil (NSC19893), paclitaxel (NSC125973), vemurafenib (NSC761431), panobinostat (NSC761190), R-306465 (JNJ-16241199; NSC773264), adavosertib (NSC754352), TP-3654 (NSC805149), carboplatin (NSC241240), KSQ-4279 (NSC840948), and staurosporine (NSC755774) were obtained from the National Cancer Institute (NCI) Developmental Therapeutics Program Chemical Repository (34). The FDA-approved anticancer drug set is available from the NCI Developmental Therapeutics Program. […] The stock solutions were prepared in dimethyl sulfoxide (DMSO, Sigma-Aldrich, St. Louis, MO, cat. D2650) at 800-fold the tested concentration and stored at -70 degrees C prior to their use. All drugs and investigational agents were tested over a range starting from a high concentration at or near the clinical Cmax and decreasing in half-log increments. If the clinical Cmax for an agent had not been determined, the highest concentration tested was 10 microM.
2.3 Cell Culture. All cells were maintained in an incubator at 37 degrees C and 5% CO2 with 95% humidity. The PDC lines were cultured according to standard operating procedures established by the NCI PDMR. All PDCs were thawed and cultured in Matrigel-coated flasks prepared with a working solution of 1X Ham's F-12 nutrient mix, without supplementation (Invitrogen, cat. 11765054), 100 U/mL penicillin-streptomycin (Invitrogen, cat. 15140122), and 2.5% Matrigel (Corning Inc., cat. 354248) for the first three passages. The 857933-349-R-J2-PDC line was cultured in 6C/Colon 1B media, which includes advanced DMEM/F-12 (Thermo Fisher Scientific, cat. 12634028), 10 mM HEPES (Thermo Fisher Scientific, cat. 15630080), 1X GlutaMAX supplement (Thermo Fisher Scientific, cat. 35050061), 0.1 mg/mL primocin (InvivoGen, cat. ant-pm-2), 10% defined fetal bovine serum, heat inactivated (HyClone Laboratories Inc., cat. SH30070.03HI), 50% L-WRN conditioned media (ATCC, cat. CRL-3276), 1.25 mM N-Acetyl-L-cysteine (Sigma-Aldrich, cat. A9165), 10 mM nicotinamide (Sigma-Aldrich, cat. N0636), 1X B-27 supplement (Thermo Fisher Scientific, cat. 17504044), 1X N-2 supplement (Thermo Fisher Scientific, cat. 17502048), 10 microM Y-27632 dihydrochloride (Tocris Bioscience, cat. 1254), and 50 ng/mL human EGF recombinant protein (Thermo Fisher Scientific, cat. PHG0311). The 485176-168-R4-J1-PDC line was cultured in Panc media, which includes all 6C/Colon 1B media components plus 100 ng/mL human FGF-10 (Thermo Fisher Scientific, cat. 100-26), 500 nM SB-431542 (Selleckchem, cat. S1067), and gastrin (Tocris, cat. 3006).
[…]

[1] = second compound 0.0316 µM, first compound 0.0316 µM
[2] = second compound 0.0316 µM, first compound 0.316 µM
[3] = second compound 0.1 µM, first compound 0.0316 µM
[4] = second compound 0.1 µM, first compound 0.316 µM
[5] = second compound 0.316 µM, first compound 0.0316 µM
[6] = second compound 0.316 µM, first compound 0.316 µM
[7] = second compound 1 µM, first compound 0.0316 µM
[8] = second compound 1 µM, first compound 0.316 µM
[9] = second compound 3.16 µM, first compound 0.0316 µM
[10] = second compound 3.16 µM, first compound 0.316 µM
[11] = second compound 10 µM, first compound 0.0316 µM
[12] = second compound 10 µM, first compound 0.316 µM
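Note: spheroids exposed to compounds for seven days before reading.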
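Throughout, for viability, T/C: percent viability relative to DMSO vehicle control taken as 100%.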

COc1ccc([C@@H](O)c2cc(-c3ncnc4cc(N5CCOCC5)ccc34)c(F)cc2Cl)nn1 + Cc1cnc(CNC(=O)c2c(=O)c3ccc(N4CCCN(C)CC4)nc3n3c2sc2ccccc23)cn1
pIC50 (second compound 0.0316 µM): 5.86 | pIC50 (second compound 0.1 µM): 5.69 | pIC50 (second compound 0.316 µM): 5.44 | pIC50 (second compound 1 µM): 5.63 | pIC50 (second compound 3.16 µM): 5.71 | pIC50 (second compound 10 µM): 5.74 | viability, T/C [1]: 106% | viability, T/C (second compound 0.0316 µM, first compound 0.1 µM): 82.7% | viability, T/C [2]: 78.8% | viability, T/C (second compound 0.0316 µM, first compound 1 µM): 47.9% | viability, T/C (second compound 0.0316 µM, first compound 3.16 µM): 41.9% | viability, T/C (second compound 0.0316 µM, first compound 10 µM): 35.5% | viability, T/C [3]: 94.8% | viability, T/C (second compound 0.1 µM, first compound 0.1 µM): 87.4% | viability, T/C [4]: 68.5% | viability, T/C (second compound 0.1 µM, first compound 1 µM): 57.1% | viability, T/C (second compound 0.1 µM, first compound 3.16 µM): 47.2% | viability, T/C (second compound 0.1 µM, first compound 10 µM): 39.3% | viability, T/C [5]: 97.3% | viability, T/C (second compound 0.316 µM, first compound 0.1 µM): 85.3% | viability, T/C [6]: 72.8% | viability, T/C (second compound 0.316 µM, first compound 1 µM): 60.2% | viability, T/C (second compound 0.316 µM, first compound 3.16 µM): 54% | viability, T/C (second compound 0.316 µM, first compound 10 µM): 40.4% | viability, T/C [7]: 97.3% | viability, T/C (second compound 1 µM, first compound 0.1 µM): 87.4% | viability, T/C [8]: 83.4% | viability, T/C (second compound 1 µM, first compound 1 µM): 62.8% | viability, T/C (second compound 1 µM, first compound 3.16 µM): 45.1% | viability, T/C (second compound 1 µM, first compound 10 µM): 35.5% | viability, T/C [9]: 90.9% | viability, T/C (second compound 3.16 µM, first compound 0.1 µM): 80.1% | viability, T/C [10]: 78.5% | viability, T/C (second compound 3.16 µM, first compound 1 µM): 57.6% | viability, T/C (second compound 3.16 µM, first compound 3.16 µM): 43.6% | viability, T/C (second compound 3.16 µM, first compound 10 µM): 34% | viability, T/C [11]: 81.9% | viability, T/C (second compound 10 µM, first compound 0.1 µM): 78% | viability, T/C [12]: 70.3% | viability, T/C (second compound 10 µM, first compound 1 µM): 55.9% | viability, T/C (second compound 10 µM, first compound 3.16 µM): 44.1% | viability, T/C (second compound 10 µM, first compound 10 µM): 31.6%

Cn1ncnc1[C@H]1c2n[nH]c(=O)c3cc(F)cc(c23)N[C@@H]1c1ccc(F)cc1 + Cc1cnc(CNC(=O)c2c(=O)c3ccc(N4CCCN(C)CC4)nc3n3c2sc2ccccc23)cn1
pIC50 (second compound 0.0316 µM): < 6.50 | pIC50 (second compound 0.1 µM): < 6.50 | pIC50 (second compound 0.316 µM): < 6.50 | pIC50 (second compound 1 µM): < 6.50 | pIC50 (second compound 3.16 µM): < 6.50 | pIC50 (second compound 10 µM): < 6.50 | viability, T/C (second compound 0.0316 µM, first compound 0.000999 µM): 94.9% | viability, T/C (second compound 0.0316 µM, first compound 0.00316 µM): 85% | viability, T/C (second compound 0.0316 µM, first compound 0.00999 µM): 93.8% | viability, T/C [1]: 81.2% | viability, T/C (second compound 0.0316 µM, first compound 0.0999 µM): 70.9% | viability, T/C [2]: 69.4% | viability, T/C (second compound 0.1 µM, first compound 0.000999 µM): 89.1% | viability, T/C (second compound 0.1 µM, first compound 0.00316 µM): 91.2% | viability, T/C (second compound 0.1 µM, first compound 0.00999 µM): 81.1% | viability, T/C [3]: 79.3% | viability, T/C (second compound 0.1 µM, first compound 0.0999 µM): 78.2% | viability, T/C [4]: 71.8% | viability, T/C (second compound 0.316 µM, first compound 0.000999 µM): 91.6% | viability, T/C (second compound 0.316 µM, first compound 0.00316 µM): 78.6% | viability, T/C (second compound 0.316 µM, first compound 0.00999 µM): 87.4% | viability, T/C [5]: 84% | viability, T/C (second compound 0.316 µM, first compound 0.0999 µM): 73.1% | viability, T/C [6]: 83.9% | viability, T/C (second compound 1 µM, first compound 0.000999 µM): 75.8% | viability, T/C (second compound 1 µM, first compound 0.00316 µM): 77.4% | viability, T/C (second compound 1 µM, first compound 0.00999 µM): 80.7% | viability, T/C [7]: 80.5% | viability, T/C (second compound 1 µM, first compound 0.0999 µM): 88.1% | viability, T/C [8]: 74.9% | viability, T/C (second compound 3.16 µM, first compound 0.000999 µM): 86.3% | viability, T/C (second compound 3.16 µM, first compound 0.00316 µM): 71.5% | viability, T/C (second compound 3.16 µM, first compound 0.00999 µM): 82% | viability, T/C [9]: 70.7% | viability, T/C (second compound 3.16 µM, first compound 0.0999 µM): 78.4% | viability, T/C [10]: 71% | viability, T/C (second compound 10 µM, first compound 0.000999 µM): 75.2% | viability, T/C (second compound 10 µM, first compound 0.00316 µM): 78.2% | viability, T/C (second compound 10 µM, first compound 0.00999 µM): 77.3% | viability, T/C [11]: 77.9% | viability, T/C (second compound 10 µM, first compound 0.0999 µM): 84% | viability, T/C [12]: 66.9%
